Measurements from patent publication US6872743B2, “sPLA2 inhibitors” (Eli Lilly and Company, priority 2000, dated 2005).

These molecules were tested against T1, recombinant human secreted phospholipase A2 (Homo sapiens, UniProt P14555) (assay: chromogenic assay for inhibitors of recombinant human secreted phospholipase A2). Conditions: diheptanoyl thio-PC substrate, pH 7.5, 40° C. for 30 minutes, absorbance at 405 nanometers, titrated in triplicate.
T1 sequence (P14555 21-144): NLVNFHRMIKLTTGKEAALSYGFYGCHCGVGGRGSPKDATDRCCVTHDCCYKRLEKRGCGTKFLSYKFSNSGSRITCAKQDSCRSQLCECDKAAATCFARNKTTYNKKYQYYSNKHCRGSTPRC
Format: biochemical
From the text: The following chromogenic assay procedure was used to identify and evaluate inhibitors of recombinant human secreted phospholipase A2. The assay described herein has been adapted for high volume screening using 96 well microtiter plates. A general description of this assay method is found in the article, “Analysis of Human Synovial Fluid Phospholipase A2 on Short Chain Phosphatidylcholine-Mixed Micelles: Development of a Spectrophotometric Assay Suitable for a Microtiterplate Reader”, by Laure J. Reynolds, Lori L. Hughes, and Edward A Dennis, Analytical Biochemistry, 204, pp. 190-197, 1992 (the disclosure of which is incorporated herein by reference):
A measured volume of racemic dipheptanoyl thio PC supplied in chloroform at a concentration of 100 mg/ml is taken to dryness and redissolved in 10 millimolar TRITON X-100™ nonionic detergent aqueous solution. Reaction Buffer is added to the solution, then DTNB to give the Reaction Mixture.
The reaction mixture thus obtained contains 1 mM diheptanoly thio-PC substrate, 0.29 mm Triton X-100™ detergent, and 0.12 mm DTMB in a buffered aqueous solution at pH 7.5.
• 1. Add 0.2 ml reaction mixture to all wells; • 2. Add 10 ul test compound (or solvent blank) to appropriate wells, mix 20 seconds; • 3. Add 50 nanograms of sPLA2 (10 microliters) to appropriate wells; • 4. Incubate plate at 40° C. for 30 minutes; • 5. Read absorbance of wells at 405 nanometers with an automatic plate reader.
Tests were done in triplicate. Typically, compounds were tested at a final concentration of 5 ug/ml. […] Lack of color development at 405 nanometers evidenced inhibition. Compounds initially found to be active were re-assayed to confirm their activity and, if sufficiently active, IC50 values were determined. […] In all cases, % inhibition measured at 405 nanometers generated by enzyme reactions containing inhibitors relative to the uninhibited control reactions was determined. […] IC50 values were determined by plotting log concentration versus inhibition values in the range from 10-90% inhibition.

Row | IC50 | SMILES
1 | 0.015 µM | NC(=O)c1cccc2c1c1c(OCC(=O)O)cc3c(c1n2Cc1ccccc1)CCCC3 [Example 1, (11-Benzyl-7-carbamoyl-2,3,4,11-tetraydro-1H-benzo[a]carbazol-6-yloxy)acetic Acid]
2 | 0.012 µM | NC(=O)c1cccc2c1c1c(OCC(=O)O)cc3c(c1n2Cc1ccccc1)CCC3 [Example 2, (10-Benzyl-6-carbamoyl-1,2,3,10-tetraydrocyclopenta[a]carbazol-5-yloxy)acetic Acid]
3 | 0.0094 µM | COC(=O)COc1cc2ccccc2c2c1c1c(C(N)=O)cccc1n2Cc1ccccc1 [Example 3, (11-Benzyl-7-carbamoyl-11H-benzo [a]carbazol-6-yloxy)acetic acid methyl ester]
